# Measured values taken from ChEMBL document CHEMBL5053544, “Microbial transformation of pentacyclic triterpenes for anti-inflammatory agents on the HMGB1 stimulated RAW 264.7 cells by Streptomyces olivaceus CICC 23628” (Bioorg Med Chem, 2021).
# Test system: RAW264.7
# Assay: Antiinflammatory activity against mouse RAW264.7 cells assessed as inhibition of HMGB1-induced NO production pretreated with compounds for 15 mins followed by HMGB1 stimulation measured after 24 hrs by Griess reagent based assay
# Type: functional, cell-based
row,Compound,IC50 [µM]
1,C=C(C)[C@@H]1CC[C@]2(C(=O)O)CC[C@]3(C)[C@H](CC[C@@H]4[C@@](C)(CCC(=O)OC)[C@H](C(C)(C)O)CC[C@]43C)[C@@H]12,> 100
2,CC(O)(CO)[C@@H]1CC[C@]2(C)[C@H](CC=C3[C@@H]4C[C@@](C)(CO)C[C@@H](O)[C@]4(C)CC[C@]32C)[C@@]1(C)CCC(=O)O (some centres not stated),> 100
3,CC1(C)C[C@H]2C3=CC[C@@H]4[C@@](C)(CCC(=O)O)[C@H]([C@](C)(O)CO)CC[C@@]4(C)[C@]3(C)CC[C@@]2(C)[C@H](O)[C@@H]1O,> 100
4,CC1(C)[C@@H](OC(=O)CCC(=O)O)CC[C@]2(C)[C@H]3C(=O)C=C4[C@@H]5C[C@@](C)(C(=O)O)CC[C@]5(C)CC[C@@]4(C)[C@]3(C)CC[C@@H]12 [CARBENOXOLONE],11.4
5,CC1(C)C[C@H]2C3=CC[C@@H]4[C@@]5(C)CC[C@H](O)[C@](C)(CO)[C@@H]5CC[C@@]4(C)[C@]3(C)CC[C@@]2(C)[C@H](O)[C@@H]1O [SOYASAPOGENOL A],> 100
6,C=C(C)[C@@H]1CC[C@]2(C(=O)O)CC[C@]3(C)[C@H](CC[C@@H]4[C@@](C)(CCC(=O)O)[C@H](C(C)(C)O)CC[C@]43C)[C@@H]12,> 100
7,CC1(C)C[C@H]2C3=CC[C@@H]4[C@@](C)(CCC(=O)O)[C@H]([C@](C)(O)CO)CC[C@@]4(C)[C@]3(C)CC[C@@]2(C)[C@H](O)[C@H]1O,15.9
8,CC1(C)C[C@H]2C3=CC[C@@H]4[C@@](C)(CCC(=O)O)[C@H]([C@](C)(O)CO)CC[C@@]4(C)[C@]3(C)C[C@@H](O)[C@@]2(CO)[C@@H](O)[C@@H]1O,> 100
9,C[C@@]1(CO)C[C@H]2C3=CC[C@@H]4[C@@](C)(CCC(=O)O)[C@H]([C@](C)(O)CO)CC[C@@]4(C)[C@]3(C)CC[C@@]2(C)[C@H](O)[C@@H]1O,> 100
10,CC1(C)C[C@@H](O)[C@]2(C)CC[C@]3(C)C(=CC[C@@H]4[C@@](C)(CCC(=O)O)[C@H]([C@](C)(O)CO)CC[C@]43C)[C@@H]2C1,> 100
11,C[C@@]1(CO)C[C@@H](O)[C@]2(C)CC[C@]3(C)C(=CC[C@@H]4[C@@](C)(CCC(=O)O)[C@H]([C@](C)(O)CO)CC[C@]43C)[C@@H]2C1,> 100
12,C[C@]1(CO)C[C@H]2C3=CC[C@@H]4[C@@](C)(CCC(=O)O)[C@H]([C@](C)(O)CO)CC[C@@]4(C)[C@]3(C)CC[C@@]2(C)[C@H](O)[C@@H]1O,36
13,CC1(C)C[C@@H](O)[C@]2(C)CC[C@]3(C)C(=CC[C@@H]4[C@@]5(C)CC[C@H](O)[C@](C)(CO)[C@@H]5CC[C@]43C)[C@@H]2C1 [SOYASAPOGENOL B],> 100
14,COC(=O)CC[C@@]1(C)[C@H]([C@](C)(O)CO)CC[C@]2(C)[C@@H]1CC=C1[C@@H]3C[C@@](C)(CO)C[C@@H](O)[C@]3(C)CC[C@]12C,> 100
15,C=C(CO)[C@@H]1CC[C@]2(C(=O)O)CC[C@]3(C)[C@H](CC[C@@H]4[C@@](C)(CCC(=O)OC)[C@H](C(C)(C)O)CC[C@]43C)[C@@H]12,> 100
16,C=C(C)[C@@H]1CC[C@]2(C(=O)O)CC[C@]3(C)[C@H](CC[C@@H]4[C@@]5(C)CC[C@H](O)C(C)(C)[C@@H]5CC[C@]43C)[C@@H]12 [BETULINIC ACID],> 100
17,C=C(CO)[C@@H]1CC[C@]2(C(=O)O)CC[C@]3(C)[C@H](CC[C@@H]4[C@@](C)(CCC(=O)O)[C@H](C(C)(C)O)CC[C@]43C)[C@@H]12,> 100
